Results on 61 molecules are retold here after patent US12162867B2, “Inhibitors of RNA helicase DHX9 and uses thereof” (ACCENT THERAPEUTICS, INC., priority 2022, dated 2024).

Bounds are passed on as bounds.

The first assay deals with circBRIP1 in HCT116 cells. Nature of the assay: DHX9 circBRIP1 cellular target engagement SYBR Green assay (qPCR). The class given is cell-based. To be noted: Homo sapiens, HCT-116, circBRIP1, HCT116 cells; SyBr assay (marked ^+); read-out: DHX9 Cellular Target Engagement EC50.
As for `Cn1cc(C(=O)Nc2cc(Cl)cc(NS(C)(=O)=O)c2)nc1-c1ccccc1` [Example 155, N-(3-chloro-5-(methylsulfonamido)phenyl)-1-methyl-2-phenyl-1H-imidazole-4-carboxamide], the EC50 worked out at 3610 nM. For `CS(=O)(=O)Nc1cc(Cl)cc(NC(=O)c2cc3c(C(F)(F)F)cccn3c2)c1` [Example 302], the EC50 amounted to 1930 nM.

As to `CCS(=O)(=O)Nc1cc(Cl)cc(NC(=O)c2cc(-c3cccnc3)cs2)c1` [Example 110], the EC50 turned out to be 2710 nM. As to `CS(=O)(=O)Nc1cc(F)cc(NC(=O)c2cc(-c3cccnc3)cs2)c1` [Example 105, N-(3-fluoro-5-(methylsulfonamido)phenyl)-4-(pyridin-3-yl)thiophene-2-carboxamide], the EC50 is 8330 nM. On to `Cc1cccnc1-c1csc(C(=O)Nc2cc(F)cc(NS(C)(=O)=O)c2)c1` [Example 334], for which the EC50 stood at 251 nM. On the same count and under the same terms, under `Cc1cccc(C#N)c1-n1cc(C(=O)Nc2cc(Br)cc(NS(C)(=O)=O)c2)cn1` [Example 44] stands 4190 nM; under `Cc1cccnc1-n1cc(C(=O)Nc2cc(Cl)cc(NS(C)(=O)=O)c2)cn1` [Example 54], 953 nM; under `CS(=O)(=O)Nc1cc(Br)cc(NC(=O)c2cc(-c3cccnc3)cs2)c1` [Example 78], 457 nM. On the same count and under the same terms, under `Cn1nc(C(=O)Nc2cc(Cl)cc(NS(C)(=O)=O)c2)cc1-c1ccccc1OCc1ccccc1` [Example 138, 5-(2-(benzyloxy)phenyl)-N-(3-chloro-5-(methylsulfonamido)phenyl)-1-methyl-1H-pyrazole-3-carboxamide] stands above 10000 nM. Still for that read-out and setting: under `Cc1cc(C(=O)Nc2cc(Cl)cc(NS(C)(=O)=O)c2)cn1-c1ccc(N2CCS(=O)(=O)CC2)cn1` [Example 285] stands 503 nM; under `CS(=O)(=O)Nc1cc(Cl)cc(NC(=O)c2cc(-c3ncccc3CC(=O)N3CCCC3)cs2)c1` [Example 383], 557 nM; under `CS(=O)(=O)Nc1cc(Cl)cc(NC(=O)c2cnn(-c3cc(N4CCNCC4)ccn3)c2)c1` [Example 147], 834 nM. On to `CC(C)(O)COc1cccnc1-n1cc(C(=O)Nc2cc(Cl)cc(NS(C)(=O)=O)c2)cn1` [Example 195], for which the EC50 came out at 751 nM. Same read-out and setting: with `CS(=O)(=O)Nc1cc(Cl)cc(NC(=O)c2cnn(-c3cnc(N4CCOCC4)cn3)c2)c1` [Example 388] the figure was 6530 nM; with `CS(=O)(=O)Nc1cc(Br)cc(NC(=O)c2cc(Cc3ccc[nH]3)cs2)c1` [Example 104, 4-((1H-pyrrol-2-yl)methyl)-N-(3-bromo-5-(methylsulfonamido)phenyl)-thiophene-2-carboxamide], 5490 nM; with `CS(=O)(=O)Nc1cc(Br)cc(NC(=O)c2cnn(-c3cc(C#N)ccn3)c2)c1` [Example 38], 933 nM. As to `CS(=O)(=O)Nc1cc(Cl)cc(NC(=O)c2cc3cc(C(F)(F)F)ccc3s2)c1` [Example 326], the EC50 was above 10000 nM. Still for that read-out and setting: under `CC(=O)N1CCN(c2cnc(-n3cc(C(=O)Nc4cc(Br)cc(NS(C)(=O)=O)c4)cn3)c(C)c2)CC1` [Example 87] stands 2460 nM; under `CS(=O)(=O)Nc1cc(Cl)cc(NC(=O)c2cn(-c3ccccc3)cn2)c1` [Example 1, N-(3-chloro-5-(methylsulfonamido)phenyl)-1-phenyl-1H-imidazole-4-carboxamide], 16400 nM; under `CS(=O)(=O)Nc1cc(Cl)cc(NC(=O)c2cccc(-c3ccnc(Cl)c3)c2)c1` [Example 102, N-(3-chloro-5-(methylsulfonamido)phenyl)-3-(2-chloropyridin-4-yl)benzamide], above 30000 nM.

As to `CS(=O)(=O)Nc1cc(Cl)cc(NC(=O)c2cc3cc(Cl)ccc3s2)c1` [Example 298], the EC50 is above 10000 nM. For the molecule `CS(=O)(=O)Nc1cc(Cl)cc(NC(=O)c2cnn(-c3ccccc3Oc3ncccn3)c2)c1` [Example 263], the EC50 is above 10000 nM. The same measure, in the same setting: with `Cn1cc(C(=O)Nc2cc(Cl)cc(NS(C)(=O)=O)c2)cc1-c1ncc(F)cc1OCc1cnco1` [Example 268] the figure was 182 nM.

For `CS(=O)(=O)Nc1cc(Cl)cc(NC(=O)c2cnn(C3CC4(CNC4)C3)c2)c1` [Example 146], the half-maximal effective concentration (EC50) is above 10000 nM. Still for that read-out and setting: under `COc1ccc(-n2cc(C(=O)Nc3cc(Cl)cc(NS(C)(=O)=O)c3)cn2)nc1` [Example 197] stands 2370 nM.

On to `CS(=O)(=O)Nc1cc(Cl)cc(NC(=O)c2cc(Br)cs2)c1` [Example 241], for which the EC50 amounted to 3680 nM. As to `CS(=O)(=O)Nc1cc(F)cc(NC(=O)c2cc(-c3ccccc3O)cs2)c1` [Example 114], the EC50 came to 1480 nM. The same measure, in the same setting: with `CS(=O)(=O)Nc1cc(Br)cc(NC(=O)c2cc(-c3ccccc3OCc3ccccc3)cs2)c1` [Example 30] the figure was 687 nM; with `Cn1cc(C(=O)Nc2cc(Cl)cc(NS(C)(=O)=O)c2)cc1-c1ccccc1` [Example 109], 437 nM.

`CS(=O)(=O)Nc1cc(Cl)cc(NC(=O)c2cc(-c3ccccc3)cs2)c1` [Example 75]: the EC50 is 1640 nM. The same measure, in the same setting: under `CS(=O)(=O)Nc1cc(Cl)cc(NC(=O)c2cccc(-c3cccc(C#N)c3)c2)c1` [Example 13] stands 7970 nM; under `CN(c1ncccn1)c1cccnc1-c1csc(C(=O)Nc2cc(Cl)cc(NS(C)(=O)=O)c2)c1` [Example 238], 289 nM; under `CS(=O)(=O)Nc1cc(Cl)cc(NC(=O)c2cnn(-c3ncc(N4CC5(COC5)C4)cc3OCc3cc(F)cc(F)c3)c2)c1` [Example 258], 291 nM. Same read-out and setting: with `CS(=O)(=O)Nc1cc(Cl)cc(NC(=O)c2cc(-c3ncccc3CC(=O)N3CCC3)cs2)c1` [Example 382] the figure was 640 nM. Still for that read-out and setting: under `Cc1ccc(C#N)cc1-n1cc(C(=O)Nc2cc(Br)cc(NS(C)(=O)=O)c2)cn1` [Example 53] stands 4950 nM; under `CS(=O)(=O)Nc1cc(Cl)cc(NC(=O)c2cnn(-c3ncccc3OCc3ccccn3)c2)c1` [Example 63], 2430 nM; under `CS(=O)(=O)Nc1cc(Cl)cc(NC(=O)c2cc3cnccc3s2)c1` [Example 288], 7800 nM.

`CS(=O)(=O)Nc1cc(Cl)cc(NC(=O)c2cc3ccccn3c2)c1` [Example 209]: the EC50 worked out at 3460 nM. The same measure, in the same setting: with `CS(=O)(=O)Nc1cc(Cl)cc(NC(=O)c2cnn(-c3ncccc3OCc3ncc[nH]3)c2)c1` [Example 252] the figure was 1790 nM; with `COC(=O)[C@@H]1CCCN1c1csc(C(=O)Nc2cc(Cl)cc(NS(C)(=O)=O)c2)c1` [Example 242], 5020 nM; with `Cc1sc(C(=O)Nc2cc(Cl)cc(NS(C)(=O)=O)c2)cc1-c1cn(Cc2ccccc2)nn1` [Example 235], 645 nM.

As to `CS(=O)(=O)Nc1cc(Cl)cc(NC(=O)c2cc(-c3ncccc3C(F)(F)F)cs2)c1` [Example 223], the EC50 came to 421 nM. Same read-out and setting: under `CCn1cc(C(=O)Nc2cc(Cl)cc(NS(C)(=O)=O)c2)cc1-c1ccccc1` [Example 79, N-(3-chloro-5-(methylsulfonamido)phenyl)-1-ethyl-5-phenyl-1H-pyrrole-3-carboxamide] stands 1120 nM; under `Cn1cc(C(=O)Nc2cc(Cl)cc(NS(C)(=O)=O)c2)cc1N1CCCCC1=O` [Example 158, N-(3-chloro-5-(methylsulfonamido)phenyl)-1-methyl-5-(2-oxopiperidin-1-yl)-1H-pyrrole-3-carboxamide], 1290 nM. Regarding `Cc1sc(C(=O)Nc2cc(Cl)cc(NS(C)(=O)=O)c2)cc1-c1ncccc1CC(=O)N(C)C` [Example 385], the EC50 stood at 1330 nM. On to `CN1CCN(c2cnc(-n3cc(C(=O)Nc4cc(Cl)cc(NS(C)(=O)=O)c4)cn3)cn2)CC1=O` [Example 184], for which the EC50 is above 10000 nM. On the same count and under the same terms, with `Cc1sc(C(=O)Nc2cc(Cl)cc(NS(C)(=O)=O)c2)cc1-c1cn(-c2ccccc2)nn1` [Example 236] the figure was 106 nM.

The assay is the same for the next values; noted with them: Homo sapiens, HCT-116, circBRIP1, HCT116 cells; ^+ SyBr assay was used; read-out: DHX9 Cellular Target Engagement EC50.
Regarding `CN1CCN(c2csc(C(=O)Nc3cc(Cl)cc(NS(C)(=O)=O)c3)c2)CC1=O` [Example 661], the EC50 is above 10000 nM. Still for that read-out and setting: with `CS(=O)(=O)Nc1cc(Cl)cc(NC(=O)c2cnn(-c3ncc(N4CCOCC4)cn3)c2)c1` [Example 394] the figure was 4230 nM; with `CS(=O)(=O)Nc1cc(Cl)cc(NC(=O)c2cnn(-c3ncc(F)cc3OCc3cnco3)c2)c1` [Example 719], 2280 nM; with `Cc1ncccc1-c1cc(F)cnc1-c1cc(C(=O)Nc2cc(Cl)cc(NS(C)(=O)=O)c2)sc1C` [Example 608], 422 nM.

As for `Cc1cc(C(=O)Nc2cc(Cl)cc(NS(C)(=O)=O)c2)cn1-c1ncc(C(F)(F)F)cn1` [Example 426], the EC50 amounted to 226 nM.

With `Cn1cc(C(=O)Nc2cc(Cl)cc(NS(C)(=O)=O)c2)cc1-c1ncccc1Oc1cccnc1` [Example 655], the EC50 stood at 4520 nM.

In the case of `CS(=O)(=O)Nc1cc(Cl)cc(NC(=O)c2cc(C3CC3)n(-c3ncc(F)cn3)c2)c1` [Example 451], the EC50 stood at 1050 nM. Same read-out and setting: under `Cn1cc(C(=O)Nc2cc(Cl)cc(NS(C)(=O)=O)c2)cc1-c1ncc(F)cc1-c1cncc(F)c1` [Example 604, N-(3-chloro-5-methanesulfonamidophenyl)-5-{5,5′-difluoro-[3,3′-bipyridin]-2-yl}-1-methylpyrrole-3-carboxamide] stands 160 nM; under `CC(C)(C)OC(=O)N1CC(n2cc(C(=O)Nc3cc(Cl)cc(NS(C)(=O)=O)c3)cc2-c2ncc(F)cn2)C1` [Example 645], 1260 nM.

On to `CS(=O)(=O)Nc1cc(Cl)cc(NC(=O)c2cc(-c3ccc(F)cn3)n(CCO)c2)c1` [Example 689], for which the EC50 stood at 340 nM. Take `Cc1sc(C(=O)Nc2cc(Cl)cc(NS(C)(=O)=O)c2)cc1-c1ncc(F)cc1-c1cncc(F)c1` [Example 607]: the EC50 came to 126 nM. For `CS(=O)(=O)Nc1cc(Cl)cc(NC(=O)c2cc(C(=O)N3CC4(CNC4)C3)n(-c3ccccn3)c2)c1` [Example 643], the EC50 is above 10000 nM. Still for that read-out and setting: with `CS(=O)(=O)Nc1cc(Cl)cc(NC(=O)c2cc(-n3cc(F)cn3)cs2)c1` [Example 440] the figure was 370 nM. On the same count and under the same terms, under `CS(=O)(=O)Nc1cc(Cl)cc(NC(=O)c2cc(C(=O)N3CCCCC3)n(-c3ccccn3)c2)c1` [Example 644] stands 8720 nM.

A word on the EC50: it is the concentration at which the effect is half-maximal.
